Assay results reported in ChEMBL document CHEMBL1201862, “PubChem BioAssay data set” (2004).
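How tested: cells in 96-well plates exposed to compound for 48 hours at five concentrations. The concentration for 50% growth inhibition is given as GI50.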 Active and inactive are the calls of the source. Cut-off read from the data, not from the text of the source: active = GI50 up to about 1.1 µM and inactive = higher.

Key:
Assay in all cases: DTP human tumour cell line panel, 48 h
UACC-62 = system: UACC-62
SF-295 = system: SF-295
NCI-H460 = system: NCI-H460
HCT-116 = system: HCT-116
SF-539 = system: SF-539
ACHN = system: ACHN
NCI-H522 = system: NCI-H522
SNB-75 = system: SNB-75
HT-29 = system: HT-29
786-0 = system: 786-0
RXF 393 = system: RXF 393
TK-10 = system: TK-10
M14 = system: M14
OVCAR-3 = system: OVCAR-3
NCI-H226 = system: NCI-H226
SW-620 = system: SW-620
SR = system: SR

SMILES	GI50 (UACC-62)	GI50 (SF-295)	GI50 (NCI-H460)	GI50 (HCT-116)	GI50 (SF-539)	GI50 (ACHN)	GI50 (NCI-H522)	GI50 (SNB-75)	GI50 (HT-29)	GI50 (786-0)	GI50 (RXF 393)	GI50 (TK-10)	GI50 (M14)	GI50 (OVCAR-3)	GI50 (NCI-H226)	GI50 (SW-620)	GI50 (SR)
COc1ccc(C2NC(c3ccc(OC)cc3)C(C)C(=O)C2C)cc1 (stereo not drawn)	> 100 µM (inactive)	> 100 µM (inactive)	> 100 µM (inactive)	91.8 µM (inactive)	> 100 µM (inactive)	> 100 µM (inactive)	> 100 µM (inactive)	34 µM (inactive)	> 100 µM (inactive)	> 100 µM (inactive)	> 100 µM (inactive)	> 100 µM (inactive)	> 100 µM (inactive)	> 100 µM (inactive)			
c1ccc(/N=C2\c3ccccc3C3=NCCCN32)cc1	61.5 µM (inactive)	92 µM (inactive)	55.1 µM (inactive)	40.2 µM (inactive)	49.3 µM (inactive)	29.4 µM (inactive)	18.1 µM (inactive)	50.9 µM (inactive)	31.1 µM (inactive)	90.4 µM (inactive)	34.7 µM (inactive)	50 µM (inactive)	> 100 µM (inactive)	75 µM (inactive)	27.2 µM (inactive)	43.9 µM (inactive)	
CCCCCCCCCCCCCCCCOC(=O)C(C(=O)OCCCCCCCCCCCCCCCC)[N+](C)(C)CCOC(C)=O	21.5 µM (inactive)	18.1 µM (inactive)	28.1 µM (inactive)	16.4 µM (inactive)		19.2 µM (inactive)	5.16 µM (inactive)	12.9 µM (inactive)	11.1 µM (inactive)	14.3 µM (inactive)	2.99 µM (inactive)	13 µM (inactive)	19.7 µM (inactive)	16.7 µM (inactive)	18.7 µM (inactive)	20.6 µM (inactive)	
CC1(C)CCC(Sc2ccccc2)O1 (stereo not drawn)	> 100 µM (inactive)	> 100 µM (inactive)	> 100 µM (inactive)	> 100 µM (inactive)	> 100 µM (inactive)	> 100 µM (inactive)		92 µM (inactive)		> 100 µM (inactive)	> 100 µM (inactive)	> 100 µM (inactive)	> 100 µM (inactive)	> 100 µM (inactive)		> 100 µM (inactive)	> 100 µM (inactive)
CCCCC1(OC(=O)CCC(=O)O)CCC2(CCC(C)C(C/C=C(C)/C=C/C(O)C(C)/C=C/C(=O)O)O2)OC1CC/C(C)=C/C(=O)O (stereo not drawn)	0.971 µM (active)	4.57 µM (inactive)	6.18 µM (inactive)	6.19 µM (inactive)	1.77 µM (inactive)	5.74 µM (inactive)	2.77 µM (inactive)	2.31 µM (inactive)	10.3 µM (inactive)	3.52 µM (inactive)	1.75 µM (inactive)	17 µM (inactive)	1.92 µM (inactive)	2.64 µM (inactive)	2.14 µM (inactive)	8.3 µM (inactive)	3.04 µM (inactive)
Cn1nc(-c2ccccc2)c2c(/C=C/c3ccc(F)cc3)onc2c1=O	> 100 µM (inactive)		> 100 µM (inactive)	9.59 µM (inactive)	61.9 µM (inactive)	24.1 µM (inactive)	17.5 µM (inactive)		29.3 µM (inactive)	11.1 µM (inactive)	23.3 µM (inactive)	90.6 µM (inactive)	> 100 µM (inactive)			> 100 µM (inactive)	
Nc1ccccc1N	> 100 µM (inactive)	> 100 µM (inactive)	> 100 µM (inactive)	> 100 µM (inactive)	> 100 µM (inactive)	> 100 µM (inactive)	15.5 µM (inactive)	> 100 µM (inactive)	> 100 µM (inactive)	> 100 µM (inactive)	> 100 µM (inactive)	> 100 µM (inactive)	> 100 µM (inactive)	> 100 µM (inactive)		> 100 µM (inactive)	32.9 µM (inactive)
CCn1cc(/C=C/C(C)c2cn(CC)c(=O)[nH]c2=O)c(=O)[nH]c1=O (stereo not drawn)	> 100 µM (inactive)	> 100 µM (inactive)	> 100 µM (inactive)		> 100 µM (inactive)	> 100 µM (inactive)	> 100 µM (inactive)	84.7 µM (inactive)	> 100 µM (inactive)	> 100 µM (inactive)	> 100 µM (inactive)	> 100 µM (inactive)	> 100 µM (inactive)	> 100 µM (inactive)		> 100 µM (inactive)	
CCC(C)c1cccc(C)c1NC(=O)C(=O)Cc1nc2ccccc2s1 (stereo not drawn)	> 100 µM (inactive)	> 100 µM (inactive)	> 100 µM (inactive)	> 100 µM (inactive)	> 100 µM (inactive)	> 100 µM (inactive)	> 100 µM (inactive)	> 100 µM (inactive)	> 100 µM (inactive)	> 100 µM (inactive)	> 100 µM (inactive)	> 100 µM (inactive)	> 100 µM (inactive)	> 100 µM (inactive)		> 100 µM (inactive)	
